Here are results for one compound from PMC6934184, “Selective DNA-PKcs inhibition extends the therapeutic index of localized radiotherapy and chemotherapy” (The Journal of Clinical Investigation, 2019).

Structures are written as SMILES.

The target of the experiment is T1, CDK5/p25 (Homo sapiens, UniProt Q00535).
T1 construct: purchased Thermo Fisher Scientific (Life Technologies) SelectScreen
The experiment in a line: SelectScreen Z'LYTE. The experiment is classed as biochemical. The method in brief: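 NU5455 was profiled across the SelectScreen Broad panel of kinase activity and binding assays. Z'LYTE reactions such as CSF1R ran at apparent Km ATP, while the Adapta CAMK1 assay used ATP listed as 10. Values are given as percent.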

T1 sequence (Q00535 whole entry): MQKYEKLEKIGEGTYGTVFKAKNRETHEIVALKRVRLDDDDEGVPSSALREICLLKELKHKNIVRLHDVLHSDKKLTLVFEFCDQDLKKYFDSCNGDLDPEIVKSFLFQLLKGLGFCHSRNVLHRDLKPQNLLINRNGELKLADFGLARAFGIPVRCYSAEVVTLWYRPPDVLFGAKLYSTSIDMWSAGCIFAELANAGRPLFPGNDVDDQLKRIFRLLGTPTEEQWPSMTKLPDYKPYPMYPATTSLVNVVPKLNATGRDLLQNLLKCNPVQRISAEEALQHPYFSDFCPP
T1 sequence (Q15078 99-307 partner limits assumed): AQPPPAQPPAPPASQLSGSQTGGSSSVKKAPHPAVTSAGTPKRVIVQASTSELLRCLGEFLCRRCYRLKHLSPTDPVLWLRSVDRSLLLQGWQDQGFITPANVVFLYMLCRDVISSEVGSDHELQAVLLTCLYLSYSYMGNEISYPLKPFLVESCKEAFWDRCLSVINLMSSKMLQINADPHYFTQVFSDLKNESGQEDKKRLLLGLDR

As for `CN(C(=O)CN1CCOCC1)c1ccc2sc3c(-c4cccc5c(=O)cc(N6CC7CCC(C6)O7)oc45)cccc3c2c1` [NU5455], the inhibition at 1 µM was -1.1%.

For orientation: inhibition means the change of the read-out against control, counted positive when it falls.
